Test results: PubChem BioAssay AID330 (DTP/NCI, 2004)
Toxic doses and inconclusive results are not listed. How the source made its calls: active means survival T/C of 150% or more; inactive means T/C below 125% in these data.

Test system: P388 leukemia ip, CD2F1 mice, survival T/C
Assay: NCI In Vivo Anticancer Drug Screen. Data for tumor model P388 Leukemia (intraperitoneal) in CD2F1 (CDF1) mice
Details: endpoint: median survival time, higher = longer survival
In short: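 Mice carrying the transplanted tumor received test compound or vehicle. Survival was recorded in each group, and the value is the treated-group measurement divided by that of the vehicle-treated control group.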

[1] = dose: 100.0 mg/kg/injection, schedule: Q01DX001 (ip), vehicle: Klucel (hydroxypropylcellulose) (HPC)
[2] = dose: 200.0 mg/kg/injection, schedule: Q01DX001 (ip), vehicle: Klucel (hydroxypropylcellulose) (HPC)
[3] = dose: 400.0 mg/kg/injection, schedule: Q01DX001 (ip), vehicle: Klucel (hydroxypropylcellulose) (HPC)
[4] = dose: 50.0 mg/kg/injection, schedule: Q01DX005 (ip), vehicle: saline with Tween-80
[5] = dose: 100.0 mg/kg/injection, schedule: Q01DX005 (ip), vehicle: saline with Tween-80

Measured: T/C

O=S(Cc1ccc2c(c1)OCO2)c1ccccc1 (configuration not stated)
inactive: [1] 101 % of control | [2] 100 % of control | [3] 100 % of control

Cc1cc(C)n(-c2ccnc(-n3nc(C)cc3C)n2)n1
inactive: dose: 100.0 mg/kg/injection, schedule: Q04DX003 (ip), vehicle: saline 104 % of control | dose: 200.0 mg/kg/injection, schedule: Q04DX003 (ip), vehicle: saline 114 % of control | dose: 400.0 mg/kg/injection, schedule: Q04DX003 (ip), vehicle: saline 101 % of control

Cn1c(Cl)c(/C=C2/N=C(c3ccccc3)OC2=O)c2ccccc21
inactive: [1] 94 % of control | [2] 94 % of control | [3] 94 % of control

CC1(C)OC(=O)C(=Cc2ccc(-c3ccccc3[N+](=O)[O-])o2)C(=O)O1
inactive: dose: 50.0 mg/kg/injection, schedule: Q01DX005 (ip), vehicle: Klucel (hydroxypropylcellulose) (HPC) 92 % of control | dose: 100.0 mg/kg/injection, schedule: Q01DX005 (ip), vehicle: Klucel (hydroxypropylcellulose) (HPC) 105 % of control | dose: 200.0 mg/kg/injection, schedule: Q01DX005 (ip), vehicle: Klucel (hydroxypropylcellulose) (HPC) 100 % of control

CC(=O)NNC1=NC(C)(C)CC1
inactive: dose: 100.0 mg/kg/injection, schedule: Q01DX001 (ip), vehicle: saline 97 % of control | dose: 200.0 mg/kg/injection, schedule: Q01DX001 (ip), vehicle: saline 102 % of control | dose: 400.0 mg/kg/injection, schedule: Q01DX001 (ip), vehicle: saline 102 % of control

Cc1cc(C)n(-c2ccc(S(=O)(=O)N3CCC(=O)N(Cc4ccccc4)C3=S)cc2)n1
inactive: [4] 100 % of control | [5] 93 % of control | dose: 200.0 mg/kg/injection, schedule: Q01DX005 (ip), vehicle: saline with Tween-80 93 % of control

Cc1ccc(SCC#CC#CCS(=O)c2ccc(C)cc2)cc1 (configuration not stated)
inactive: [4] 110 % of control | [5] 107 % of control

O=C(O)CSc1nc2ccc(N3C(=O)C4C5C=CC(C5)C4C3=O)cc2s1 (configuration not stated)
inactive: dose: 50.0 mg/kg/injection, schedule: Q01DX009 (ip), vehicle: Klucel (hydroxypropylcellulose) (HPC) 90 % of control | dose: 100.0 mg/kg/injection, schedule: Q01DX009 (ip), vehicle: Klucel (hydroxypropylcellulose) (HPC) 105 % of control | dose: 200.0 mg/kg/injection, schedule: Q01DX009 (ip), vehicle: Klucel (hydroxypropylcellulose) (HPC) 99 % of control

O=C1NC(=O)[C@@]2(CC[C@@H](O)C2)c2ccncc21
inactive: dose: 1.5 mg/kg/injection, schedule: Q01DX009 (ip), vehicle: DMSO 89 % of control | dose: 3.0 mg/kg/injection, schedule: Q01DX009 (ip), vehicle: DMSO 93 % of control | dose: 6.0 mg/kg/injection, schedule: Q01DX009 (ip), vehicle: DMSO 101 % of control | dose: 12.0 mg/kg/injection, schedule: Q01DX009 (ip), vehicle: DMSO 95 % of control | dose: 25.0 mg/kg/injection, schedule: Q01DX005 (ip), vehicle: DMSO 91 % of control | dose: 50.0 mg/kg/injection, schedule: Q01DX005 (ip), vehicle: DMSO 96 % of control | dose: 100.0 mg/kg/injection, schedule: Q01DX005 (ip), vehicle: DMSO 93 % of control | dose: 200.0 mg/kg/injection, schedule: Q01DX005 (ip), vehicle: DMSO 92 % of control

Cc1cc(C)c(CCl)cc1CCl
inactive: dose: 20.0 mg/kg/injection, schedule: Q04DX003 (ip), vehicle: saline with Tween-80 113 % of control | dose: 40.0 mg/kg/injection, schedule: Q04DX003 (ip), vehicle: saline with Tween-80 118 % of control | dose: 80.0 mg/kg/injection, schedule: Q04DX003 (ip), vehicle: saline with Tween-80 90 % of control

CCOC(=O)/C=C1/SC(N2CCCCC2)C(=O)N1C (configuration not stated)
inactive: dose: 50.0 mg/kg/injection, schedule: Q01DX009 (ip), vehicle: saline 100 % of control | dose: 100.0 mg/kg/injection, schedule: Q01DX009 (ip), vehicle: saline 104 % of control | dose: 200.0 mg/kg/injection, schedule: Q01DX009 (ip), vehicle: saline 100 % of control

CC(=O)OC1C=CC(=O)C1 (configuration not stated)
inactive: dose: 7.5 mg/kg/injection, schedule: Q01DX005 (ip), vehicle: saline with Tween-80 122 % of control | dose: 15.0 mg/kg/injection, schedule: Q01DX005 (ip), vehicle: saline with Tween-80 116 % of control

OC1(c2ccccc2)c2ccccc2-c2ccccc21
inactive: dose: 100.0 mg/kg/injection, schedule: Q04DX003 (ip), vehicle: saline with Tween-80 109 % of control | dose: 200.0 mg/kg/injection, schedule: Q04DX003 (ip), vehicle: saline with Tween-80 109 % of control | dose: 400.0 mg/kg/injection, schedule: Q04DX003 (ip), vehicle: saline with Tween-80 104 % of control
